Target: T1, GLP-1 Receptor (Homo sapiens, UniProt P43220)
T1 construct: host or cells: HEK293/CRE-Luc
Test: GLP-1R agonist cAMP stimulation assay
Type: cell-based
Conditions: HEK293/CRE-Luc cell line stably expressing the GLP-1 Receptor; 30 min at 37° C.; cAMP dynamic 2 Kit
Method: Activation of GLP-1 receptor is known to stimulate cyclic AMP (cAMP) production in cells which indicates primary coupling to the Gas subunit of the G protein heterotrimeric complex.
To optimize functional activity directed toward Gas coupling, a HEK293/CRE-Luc cell line developed by HDB stably expressing the GLP-1 Receptor was used. 200× concentration of compound working solutions were prepared (Agilent Technologies Bravo) with ½ log serial dilution in 384-well Echo LDV plate (Labcyte, Cat #LP-0200). 50 nL/well 200× concentration of compound working solutions were moved to 384-well white low volume plate (Greiner, Cat #784075) using Labcyte ECHO550. 1×10^5 cells/mL HEK293/GLPlR/CRE-LUC (HD Biosciences) cell suspensions prepared with assay buffer [DPBS containing 0.5 mM IBMX (Sigma, Cat #15879) and 0.1% BSA (GENVIEW, Cat #FA016-100g)], 10 μL cell suspensions were added to each well of previous generated assay plate which already contains 50 nL compound at 200× concentration using ThermoFisher Multidrop Combi (1000 cells/well). Seal the plate and incubate at 37° C. with 5% CO2 for 30 min.
After incubation the cAMP assay signal was generated using cAMP dynamic 2 Kit (Cisbio). 5 μL cAMP-d2 working solution was added to each well, followed with 5 μL Anti-cAMP antibody-cryptate working solution added to each well using ThermoFisher Multidrop Combi. Incubate at room temperature for 1 hour protected from light. Read the fluorescence at 665 and 615 nm with Reader PerkinElmer EnVision.
% Activity=100%×(mean RLU of test sample mean RLU of vehicle control)/(mean RLU of MAX control−mean RLU of vehicle control))

T1 sequence (P43220 24-463): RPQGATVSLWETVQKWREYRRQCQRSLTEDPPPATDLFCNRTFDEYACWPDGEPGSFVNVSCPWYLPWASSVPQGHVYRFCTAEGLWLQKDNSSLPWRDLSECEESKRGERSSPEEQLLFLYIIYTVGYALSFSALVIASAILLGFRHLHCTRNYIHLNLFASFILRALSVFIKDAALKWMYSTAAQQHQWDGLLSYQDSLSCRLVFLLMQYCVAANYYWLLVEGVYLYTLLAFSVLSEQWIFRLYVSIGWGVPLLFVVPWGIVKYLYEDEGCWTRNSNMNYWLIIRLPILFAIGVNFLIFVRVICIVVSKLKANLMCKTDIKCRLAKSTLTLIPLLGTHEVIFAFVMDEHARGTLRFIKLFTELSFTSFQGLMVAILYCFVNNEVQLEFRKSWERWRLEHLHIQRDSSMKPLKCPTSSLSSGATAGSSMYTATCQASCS

Q: For `N#CC1(Cc2cc(-c3nnc(C(F)(F)F)[nH]3)cnc2CN2CC=C(c3ccc(F)c(OCc4ccc(Cl)cc4F)c3)CC2)CC1` [Example 48, 1-({2-[(4-{3-[(4-chloro-2-fluorophenyl)methoxy]-4-fluorophenyl}-1,2,3,6-tetrahydropyridin-1-yl)methyl]-5-[5-(trifluoromethyl)-4H-1,2,4-triazol-3-yl]pyridin-3-yl}methyl)cyclopropane-1-carbonitrile], which EC50 is on record?
A: 1 to 100 nM

Q: How did the EC50 turn out when `Cc1cc(-c2nnc(C(F)(F)F)[nH]2)nnc1CN1CCC(c2cccc3c2O[C@@](C)(c2ccc(Cl)cc2F)O3)CC1` [Example 49, (S)-3-((4-(2-(4-chloro-2-fluorophenyl)-2-methylbenzo[d][1,3]dioxol-4-yl)piperidin-1-yl)methyl)-4-methyl-6-(5-(trifluoromethyl)-4H-1,2,4-triazol-3-yl)pyridazine] was run?
A: 1 to 100 nM

Q: Which EC50 does the source give for `Cc1cc(-c2nnn[nH]2)nnc1CN1CCC(c2cccc3c2O[C@@](C)(c2ccc(Cl)cc2F)O3)CC1` [Example 50, 3-({4-[(2S)-2-(4-chloro-2-fluorophenyl)-2-methyl-1,3-benzodioxol-4-yl]piperidin-1-yl}methyl)-4-methyl-6-(1H-1,2,3,4-tetrazol-5-yl)pyridazine] here?
A: 1 to 100 nM

Q: How did the EC50 turn out when `Cc1cc(-c2noc(=O)[nH]2)nnc1CN1CCC(c2cccc3c2O[C@@](C)(c2ccc(Cl)cc2F)O3)CC1` [Example 51, (S)-3-(6-((4-(2-(4-chloro-2-fluorophenyl)-2-methylbenzo[d][1,3]dioxol-4-yl)piperidin-1-yl)methyl)-5-methylpyridazin-3-yl)-1,2,4-oxadiazol-5(4H)-one] was run?
A: 1 to 100 nM

Q: Which EC50 does the source give for `Cc1nc(-c2nnc(C(F)(F)F)[nH]2)cnc1CN1CCC(c2cccc3c2O[C@@](C)(c2ccc(Cl)cc2F)O3)CC1` [Example 52, 2-({4-[(2S)-2-(4-chloro-2-fluorophenyl)-2-methyl-1,3-benzodioxol-4-yl]piperidin-1-yl}methyl)-3-methyl-5-[5-(trifluoromethyl)-4H-1,2,4-triazol-3-yl]pyrazine] here?
A: 1 to 100 nM

Q: `COC1(Cc2cc(-c3nnc(C(F)(F)F)[nH]3)cnc2CN2CCC(c3cccc4c3O[C@@](C)(c3ccc(Cl)cc3F)O4)CC2)CC1` [Example 53, 2-({4-[(2S)-2-(4-chloro-2-fluorophenyl)-2-methyl-2H-1,3-benzodioxol-4-yl]piperidin-1-yl}methyl)-3-[(1-methoxycyclopropyl)methyl]-5-[5-(trifluoromethyl)-4H-1,2,4-triazol-3-yl]pyridine] was tested. Which EC50 did it give?
A: 1 to 100 nM

Q: With `C[C@]1(c2ccc(Cl)cc2F)Oc2cccc(C3CCN(Cc4ncc(-c5nnc(C(F)(F)F)[nH]5)cc4CC4CCS4(=O)=O)CC3)c2O1` (stereo partly drawn) [Example 54, 2-{[2-({4-[(2S)-2-(4-chloro-2-fluorophenyl)-2-methyl-2H-1,3-benzodioxol-4-yl]piperidin-1-yl}methyl)-5-[5-(trifluoromethyl)-4H-1,2,4-triazol-3-yl]pyridin-3-yl]methyl}-1λ^6-thietane-1,1-dione] as the compound, how does the EC50 read?
A: 1 to 100 nM

Q: For `C[C@]1(c2ccc(Cl)cc2F)Oc2cccc(C3CCN(Cc4ncc(-c5nnc(C(F)(F)F)[nH]5)cc4CS(C)(=O)=O)CC3)c2O1` [Example 55, 2-({4-[(2S)-2-(4-chloro-2-fluorophenyl)-2-methyl-2H-1,3-benzodioxol-4-yl]piperidin-1-yl}methyl)-3-(methanesulfonylmethyl)-5-[5-(trifluoromethyl)-4H-1,2,4-triazol-3-yl]pyridine], which EC50 is on record?
A: < 1 nM

Q: `CN(C)C(=O)Cc1cc(-c2nnc(C(F)(F)F)[nH]2)cnc1CN1CCC(c2cccc3c2O[C@@](C)(c2ccc(Cl)cc2F)O3)CC1` [Example 56, (S)-2-(2-((4-(2-(4-chloro-2-fluorophenyl)-2-methylbenzo[d][1,3]dioxol-4-yl)piperidin-1-yl)methyl)-5-(5-(trifluoromethyl)-4H-1,2,4-triazol-3-yl)pyridin-3-yl)-N,N-dimethylacetamide] was tested. Which EC50 did it give?
A: 1 to 100 nM

Q: Which EC50 does the source give for `CS(=O)(=O)Cc1cc(-c2nnc(C(F)(F)F)[nH]2)cnc1CN1CCC(c2cccc(OCc3ccc(Cl)cc3F)n2)CC1` [Example 57, 2-[(4-{6-[(4-chloro-2-fluorophenyl)methoxy]pyridin-2-yl}piperidin-1-yl)methyl]-3-(methanesulfonylmethyl)-5-[5-(trifluoromethyl)-4H-1,2,4-triazol-3-yl]pyridine] here?
A: 1 to 100 nM

Q: With `C[C@]1(c2ccc(Cl)cc2F)Oc2cccc(C3CCN(Cc4ncc(-c5noc(=O)[nH]5)cc4CS(C)(=O)=O)CC3)c2O1` [Example 58, 3-[6-({4-[(2S)-2-(4-chloro-2-fluorophenyl)-2-methyl-2H-1,3-benzodioxol-4-yl]piperidin-1-yl}methyl)-5-(methanesulfonylmethyl)pyridin-3-yl]-2,5-dihydro-1,2,4-oxadiazol-5-one] as the compound, how does the EC50 read?
A: < 1 nM

Q: Which EC50 does the source give for `CCS(=O)(=O)Cc1cc(-c2nnc(C(F)(F)F)[nH]2)cnc1CN1CCC(c2cccc3c2O[C@@](C)(c2ccc(Cl)cc2F)O3)CC1` [Example 59, 2-({4-[(2S)-2-(4-chloro-2-fluorophenyl)-2-methyl-2H-1,3-benzodioxol-4-yl]piperidin-1-yl}methyl)-3-[(ethanesulfonyl)methyl]-5-[5-(trifluoromethyl)-4H-1,2,4-triazol-3-yl]pyridine] here?
A: < 1 nM

Q: How did the EC50 turn out when `CC(c1cc(-c2nnc(C(F)(F)F)[nH]2)cnc1CN1CCC(c2cccc3c2O[C@@](C)(c2ccc(Cl)cc2F)O3)CC1)S(C)(=O)=O` (stereo partly drawn) [Example 60, 2-((4-((S)-2-(4-chloro-2-fluorophenyl)-2-methylbenzo[d][1,3]dioxol-4-yl)piperidin-1-yl)methyl)-3-(1-(methylsulfonyl)ethyl)-5-(5-(trifluoromethyl)-4H-1,2,4-triazol-3-yl)pyridine] was run?
A: 1 to 100 nM

Q: How did the EC50 turn out when `CS(=O)(=O)Cc1cc(-c2nnc(C(F)(F)F)[nH]2)cnc1CN1CCC(c2ccc(F)c(OCc3ccc(Cl)cc3F)n2)CC1` [Example 61, 2-[(4-{6-[(4-chloro-2-fluorophenyl)methoxy]-5-fluoropyridin-2-yl}piperidin-1-yl)methyl]-3-(methanesulfonylmethyl)-5-[5-(trifluoromethyl)-4H-1,2,4-triazol-3-yl]pyridine] was run?
A: < 1 nM

Q: Which EC50 does the source give for `C[C@]1(c2ccc(Cl)cc2F)Oc2cccc(C3CCN(Cc4ncc(-c5nnc(C(F)(F)F)[nH]5)nc4CC4(C#N)CC4)CC3)c2O1` [Example 62, 1-{[3-({4-[(2S)-2-(4-chloro-2-fluorophenyl)-2-methyl-2H-1,3-benzodioxol-4-yl]piperidin-1-yl}methyl)-6-[5-(trifluoromethyl)-4H-1,2,4-triazol-3-yl]pyrazin-2-yl]methyl}cyclopropane-1-carbonitrile] here?
A: < 1 nM

Q: For `N#CC1(Cc2cc(-c3nnc(C(F)(F)F)[nH]3)cnc2CN2CCC(c3ccc(F)c(OCc4ccc(Cl)c5ccoc45)n3)CC2)CC1` [Example 63, 1-((2-((4-(6-((4-chlorobenzofuran-7-yl)methoxy)-5-fluoropyridin-2-yl)piperidin-1-yl)methyl)-5-(5-(trifluoromethyl)-4H-1,2,4-triazol-3-yl)pyridin-3-yl)methyl)cyclopropane-1-carbonitrile], which EC50 is on record?
A: < 1 nM

Q: For `N#CC1(Cc2cc(-c3nnc(C(F)(F)F)[nH]3)cnc2CN2CCC(c3cccc(OCc4ccc(Cl)c5ccoc45)n3)CC2)CC1` [Example 64, 1-((2-((4-(6-((4-chlorobenzofuran-7-yl)methoxy)pyridin-2-yl)piperidin-1-yl)methyl)-5-(5-(trifluoromethyl)-4H-1,2,4-triazol-3-yl)pyridin-3-yl)methyl)cyclopropane-1-carbonitrile], which EC50 is on record?
A: < 1 nM

Q: `Cc1ccc(C2(C)Oc3cccc(C4=CCN(Cc5ncc(-c6nnc(C(F)(F)F)[nH]6)cc5CC5(C#N)CC5)CC4)c3O2)c(Cl)c1` (stereo not shown) [Example 65, 1-((2-((4-(2-(2-chloro-4-methylphenyl)-2-methylbenzo[d][1,3]dioxol-4-yl)-3,6-dihydropyridin-1(2H)-yl)methyl)-5-(5-(trifluoromethyl)-4H-1,2,4-triazol-3-yl)pyridin-3-yl)methyl)cyclopropane-1-carbonitrile] was tested. Which EC50 did it give?
A: < 1 nM

Q: With `CC1(c2ccc(Cl)cc2F)Oc2cccc(C3=CCN(Cc4ncc(-c5nnc(C(F)(F)F)[nH]5)cc4CC4(C#N)CC4)CC3)c2O1` (stereo not shown) [Example 66, 1-((2-((4-(2-(4-chloro-2-fluorophenyl)-2-methylbenzo[d][1,3]dioxol-4-yl)-3,6-dihydropyridin-1(2H)-yl)methyl)-5-(5-(trifluoromethyl)-4H-1,2,4-triazol-3-yl)pyridin-3-yl)methyl)cyclopropane-1-carbonitrile] as the compound, how does the EC50 read?
A: < 1 nM

Q: How did the EC50 turn out when `C[C@]1(c2ccc(Cl)cc2F)Oc2cccc(C3CCN(Cc4ncc(C5CC5C(=O)O)cc4CC4(C#N)CC4)CC3)c2O1` (stereo partly drawn) [Example 67, 2-(6-((4-((S)-2-(4-chloro-2-fluorophenyl)-2-methylbenzo[d][1,3]dioxol-4-yl)piperidin-1-yl)methyl)-5-((1-cyanocyclopropyl)methyl)pyridin-3-yl)cyclopropane-1-carboxylic acid] was run?
A: 1 to 100 nM

Q: `C[C@]1(c2ccc(Cl)cc2F)Oc2cccc(C3CCN(Cc4ncc(-c5nnn[nH]5)cc4CC4(C#N)CC4)CC3)c2O1` [Example 71] was tested. Which EC50 did it give?
A: < 1 nM

Q: With `C[C@]1(c2ccc(Cl)cc2F)Oc2cccc(C3CCN(Cc4ncc(-c5noc(=O)[nH]5)cc4CC4(C#N)CC4)CC3)c2O1` [Example 73] as the compound, how does the EC50 read?
A: < 1 nM

Source: patent US20250145596A1, “HETEROCYCLIC GLP-1 AGONISTS” (Gasherbrum Bio, Inc., priority 2022, published 2025)
